Measurements taken from patent US20080058330A1, “Compounds and Combinations Thereof for Inhibiting Beta-Amyloid Production and Methods of Use Thereof” (Roskamp Research LLC, priority 2006, published 2008).

Legend:
7W WT APP751 CHO cells = assay: Measurement of Aβ1-40 and Aβ1-42 by ELISA after treatment with calcium channel blockers (Example 1); format: cell-based, Chinese hamster
Procedure: Chinese hamster ovary (CHO) cells, stably transfected with human APP751 (7W WT APP751 CHO cells) were used. See, e.g., Koo and Squazzo, J. Biol. Chem., Vol. 269, Issue 26, 17386-17389, July, 1994. The cells were maintained in DMEM medium supplemented with 10% fetal bovine serum and IX mixture of penicillin/streptomycin/fungizone/glutamine mixture (Cambrex, Md.) geneticin as selecting agent in 75 cm^2 cell culture flasks.
The 7W WT APP751 CHO cells were plated in 24-well cell culture plates in quadruplicate, containing 1 ml of culture medium, and treated with various calcium channel blocker compounds for 4 hours, 24 hours or 48 hours at 37° C. and 5% CO2. […] The culture medium was collected and diluted 5-fold for the 4 hours assay and 50-fold for the 24 hour assay before being assayed by ELISAs for Aβ1-40 and Aβ1-42, respectively. Concentrations of Aβ1-40 and Aβ1-42, expressed in pg/ml, were determined using commercially available ELISAs (Biosource, Calif.) in a colorimetric assay using labeled antibodies detected spectrophotometrically.

| SMILES | melting point [°C] | further results |
| --- | --- | --- |
| CC1=C(C(=O)OC(C)(C)C)C(c2cccc(Br)c2)C(C(=O)OC(C)(C)C)=C(C)N1 [Example 25, Di-tert-butyl 4-(3-bromophenyl)-1,4-dihydro-2,6-dimethylpyridine-3,5-dicarboxylate] | 195 to 196 |  |
| CC1=C(C(=O)OC(C)(C)C)C(c2ccc(Br)cc2)C(C(=O)OC(C)(C)C)=C(C)N1 [Example 27, Di-tert-butyl 4-(4-bromophenyl)-1,4-dihydro-2,6-dimethylpyridine-3,5-dicarboxylate] | 206 to 207 |  |
| CC1=C(C(=O)OC(C)(C)C)C(c2ccccc2I)C(C(=O)OC(C)(C)C)=C(C)N1 [Example 28, Di-tert-butyl 1,4-dihydro-4-(2-iodophenyl)-2,6-dimethylpyridine-3,5-dicarboxylate] | 184 to 185 |  |
| CCOC(=O)C1=C(C)NC(C)=C(C(=O)OCC)C1c1cccc(Cl)c1Cl [Example 31, Diethyl 4-(2,3-dichlorophenyl)-1,4-dihydro-2,6-dimethylpyridine-3,5-dicarboxylate] | 125 to 126 |  |
| CC1=C(C(=O)OC(C)(C)C)C(c2cccc(Cl)c2Cl)C(C(=O)OC(C)(C)C)=C(C)N1 [Example 32, Di-tert-butyl 4-(2,3-dichlorophenyl)-I14-dihydro-2,6-dimethylpyridine-3,5-dicarboxylate] | 144 to 145 |  |
| CCOC(=O)C1=C(C)NC(C)=C(C(=O)OCC)C1c1cc(Cl)ccc1Cl [Example 34, Diethyl 4-(2,5-dichlorophenyl)-1,4-dihydro-2,6-dimethylpyridine-3,5-dicarboxylate] | 166.5 to 167.5 |  |
| CC1=C(C(=O)OC(C)(C)C)C(c2cc(Cl)ccc2Cl)C(C(=O)OC(C)(C)C)=C(C)N1 [Example 35, Di-tert-butyl 4-(2,5-dichlorophenyl)-1,4-dihydro-2,6-dimethylpyridine-3,5-dicarboxylate] | 181 to 183 |  |
| CCOC(=O)C1=C(C)NC(C)=C(C(=O)OCC)C1c1c(Cl)cccc1Cl [Example 36, Diethyl 4-(2,6-dichlorophenyl)-1,4-dihydro-2,6-dimethylpyridine-3,5-dicarboxylate] | 134 to 135 |  |
| CCOC(=O)C1=C(C)NC(C)=C(C(=O)OCC)C1c1cc(Cl)cc(Cl)c1 [Example 37, Diethyl 4-(3,5-dichlorophenyl)-1,4-dihydro-2,6-dimethylpyridine-3,5-dicarboxylate] | 102 to 104 |  |
| CCOC(=O)C1=C(C)NC(C)=C(C(=O)OCC)C1c1cccc(F)c1F [Example 38, Diethyl 4-(2,3-difluorophenyl)-1,4-dihydro-2,6-dimethylpyridine-3,5-dicarboxylate] | 161 to 162 |  |
| CC1=C(C(=O)OC(C)(C)C)C(c2cccc(F)c2F)C(C(=O)OC(C)(C)C)=C(C)N1 [Example 39, Di-tert-butyl 4-(2,3-difluorophenyl)-1,4-dihydro-2,6-dimethylpyridine-3,5-dicarboxylate] | 192 to 194 |  |
| C=CCOC(=O)C1=C(C)NC(C)=C(C(=O)OCC=C)C1c1ccc(Br)cc1 [Example 40, Diallyl 4-(4-bromophenyl)-1,4-dihydro-2,6-dimethylpyridine-3,5-dicarboxylate] | 130 to 131 |  |
| CCOC(=O)C1=C(C)NC(C)=C(C(=O)OCC)C1c1ccc(F)c(Br)c1 [Example 41, Diethyl 4-(3-bromo-4-fluorophenyl)-1,4-dihydro-2,6-dimethylpyridine-3,5-dicarboxylate] | 118 to 119 |  |
| CC1=C(C(=O)OC(C)(C)C)C(c2ccc(F)c(Br)c2)C(C(=O)OC(C)(C)C)=C(C)N1 [Example 42, Di-tert-butyl 4-(3-bromo-4-fluorophenyl)-1,4-dihydro-2,6-dimethylpyridine-3,5-dicarboxylate] | 171 to 172 |  |
| CCOC(=O)C1=C(C)NC(C)=C(C(=O)OCC)C1c1ccc(Br)cc1F [Example 43, Diethyl 4-(4-bromo-2-fluorophenyl)-1,4-dihydro-2,6-dimethylpyridine-3,5-dicarboxylate] | 154 to 155 |  |
| CC1=C(C(=O)OC(C)(C)C)C(c2ccc(Br)cc2F)C(C(=O)OC(C)(C)C)=C(C)N1 [Example 44, Di-tert-butyl 4-(4-bromo-2-fluorophenyl)-1,4-dihydro-2,6-dimethylpyridine-3,5-dicarboxylate] | 187 to 188 |  |
| COCCOC(=O)C1=C(C)NC(C)=C(C(=O)OCCOC)C1c1cccc(Br)c1 [Example 45, Bis(2-methoxyethyl) 4-(3-bromophenyl)-1,4-dihydro-2,6-dimethylpyridine-3,5-dicarboxylate] | 124.5 to 125.5 |  |

| SMILES | melting point [°C] | further results |
| --- | --- | --- |
| COCCOC(=O)C1=C(C)NC(C)=C(C(=O)OCCOC)C1c1ccc(Br)cc1 [Example 46, Bis(2-methoxyethyl) 4-(4-bromophenyl)-1,4-dihydro-2,6-dimethylpyridine-3,5-dicarboxylate] | 116 to 117 |  |
| CCOC(=O)C1=C(C)NC(C)=C(C(=O)OCC)C1c1cc(Br)ccc1F [Example 47, Diethyl 4-(5-bromo-2-fluorophenyl)-1,4-dihydro-2,6-dimethylpyridine-3,5-dicarboxylate] | 118 to 119 |  |
| CC1=C(C(=O)OC(C)(C)C)C(c2cc(Br)ccc2F)C(C(=O)OC(C)(C)C)=C(C)N1 [Example 48, Di-tert-butyl 4-(5-bromo-2-fluorophenyl)-1,4-dihydro-2,6-dimethylpyridine-3,5-dicarboxylate] | 173 to 174 |  |
| CC1=C(C(=O)OC(C)(C)C)C(c2cccc(F)c2)C(C(=O)OC(C)(C)C)=C(C)N1 [Example 50, Di-tert-butyl 4-(3-fluorophenyl)-1,4-dihydro-2,6-dimethylpyridine-3,5-dicarboxylate] | 178 to 179 |  |
| CCOC(=O)C1=C(C)NC(C)=C(C(=O)OCC)C1c1ccc(F)cc1 [Example 51, Diethyl 4-(4-fluorophenyl)-1,4-dihydro-2,6-dimethylpyridine-3,5-dicarboxylate] | 150 to 151 |  |
| CC1=C(C(=O)OC(C)(C)C)C(c2ccc(F)cc2)C(C(=O)OC(C)(C)C)=C(C)N1 [Example 52, Di-tert-butyl 4-(4-fluorophenyl)-1,4-dihydro-2,6-dimethylpyridine-3,5-dicarboxylate] | 149 to 150 |  |
| COCC1=C(C(=O)OC)C(c2ccc(Br)cc2)C(C(=O)OC)=C(COC)N1 [Example 53, Dimethyl 4-(4-bromophenyl)-1,4-dihydro-2,6-bis(methoxymethyl)pyridine-3,5-dicarboxylate] | 162 to 163 |  |
| CCOC(=O)C1=C(C)N(Cc2ccccc2)C(C)=C(C(=O)OCC)C1c1ccc(Br)cc1 [Example 54, Diethyl 1-benzyl-4-(4-bromophenyl)-1,4-dihydro-2,6-dimethylpyridine-3,5-dicarboxylate] | 168 to 169 |  |
| CC1=C(C(=O)OC(C)(C)C)C(c2ccc(C)cc2C)C(C(=O)OC(C)(C)C)=C(C)N1 [Example 55, Di-tert-butyl 1,4-dihydro-2,6-dimethyl-4-(2,4-dimethylphenyl)pyridine-3,5-dicarboxylate] | 197 to 198 |  |
| CCOC(=O)C1=C(C)NC(C)=C(C(=O)OC)C1c1ccccc1Cl (stereo not drawn) [Example 56, 3-Ethyl 5-methyl 4-(2-chlorophenyl)-1,4-dihydro-2,6-dimethylpyridine-3,5-dicarboxylate] | 125 to 127 |  |
| COC(=O)C1=C(C)NC(C)=C(C(C)=O)C1c1ccccc1Cl (stereo not drawn) [Example 57, Methyl 5-acetyl-4-(2-chlorophenyl)-1,4-dihydro-2,6-dimethylpyridine-3-carboxylate] | 183 to 184 |  |
| CCOC(=O)C1=C(C)NC(C)=C(C(=O)OC)C1c1ccccc1Br (stereo not drawn) [Example 58, 3-Ethyl 5-methyl 4-(2-bromophenyl)-I14-dihydro-2,6-dimethylpyridine-3,5-dicarboxylate] | 134.5 to 135.5 |  |
| COC(=O)C1=C(C)NC(C)=C(C(C)=O)C1c1ccccc1Br (stereo not drawn) [Example 59, Methyl 5-acetyl-4-(2-bromophenyl)-1,4-dihydro-2,6-dimethylpyridine-3-carboxylate] | 146 to 148 |  |
| Clc1ccc(C(c2ccc(Cl)cc2)[n+]2ccn(CC(OCc3ccc(Cl)cc3Cl)c3ccc(Cl)cc3Cl)c2)cc1.[Cl-] (stereo not drawn) [Example R24571, 1-[bis(p-chlorophenyl)methyl]-3-[2-(2,4-di-chloro-p-(2,4-dichlorobenzyl-oxy)phenethyl)]-imidazolium chloride] |  | concentration of Aβ1-40 compared to controls (7W WT APP751 CHO cells; 5 μM (FIG. 4)): significantly decreased; concentration of total β-amyloid compared to controls (7W WT APP751 CHO cells; 5 μM (FIG. 4)): significantly decreased |
| C#CCN1C(C)=C(C(=O)OC)C(c2cccc([N+](=O)[O-])c2)C(C(=O)OCC)=C1C (stereo not drawn) [MRS 1845, N-propargylnitrendipine] |  | concentration of Aβ1-40 compared to controls (7W WT APP751 CHO cells; 30 μM (FIG. 3)): significantly decreased; concentration of total β-amyloid compared to controls (7W WT APP751 CHO cells; 30 μM (FIG. 3)): significantly decreased |
| COc1ccc(CCCOC(Cn2ccnc2)c2ccc(OC)cc2)cc1.Cl (stereo not drawn) [SKF 96365, 1-[beta-[3-(4-methoxyphenyl)propoxy]-4-methoxyphenethyl]-1H-imidazole hydrochloride] |  | concentration of Aβ1-40 compared to controls (7W WT APP751 CHO cells; 15 μM, 24 hours (FIG. 1B)): significantly decreased; concentration of Aβ1-40 compared to controls (7W WT APP751 CHO cells; 30 μM (FIG. 2)): significantly decreased; concentration of Aβ1-42 compared to controls (7W WT APP751 CHO cells; 30 μM (FIG. 2)): significantly decreased; concentration of total β-amyloid compared to controls (7W WT APP751 CHO cells; 30 μM (FIG. 2)): significantly decreased; concentration of Aβ1-40 compared to controls (7W WT APP751 CHO cells; 30 μM, 24 hours (FIG. 1B)): significantly decreased |
